Active and inactive are the calls of the source. The rule behind the calls is not given here.

Test [1] in a line: Inhibition of [125I]RANTES binding to THP-1 cell membranes rich in C-C chemokine receptor types 1. Also noted: species or system Homo sapiens.
A further test has as its system THP-1. In words: Compound was tested in vitro for inhibition of [125I]RANTES binding to THP-1 cell membranes rich in C-C chemokine receptor type 1. To be noted: dose or concentration not given here.
For test [2], the target named is C-C chemokine receptor type 2 (Homo sapiens) (UniProt P41597). As to the kind of experiment: Tested for inhibition of [125I]-MCP-1 receptor binding to THP-1 cell membranes at concentrations up to 30 uM; NI means no inhibition.
Chain of C-C chemokine receptor type 2 (Homo sapiens) (P41597 whole entry, looked up): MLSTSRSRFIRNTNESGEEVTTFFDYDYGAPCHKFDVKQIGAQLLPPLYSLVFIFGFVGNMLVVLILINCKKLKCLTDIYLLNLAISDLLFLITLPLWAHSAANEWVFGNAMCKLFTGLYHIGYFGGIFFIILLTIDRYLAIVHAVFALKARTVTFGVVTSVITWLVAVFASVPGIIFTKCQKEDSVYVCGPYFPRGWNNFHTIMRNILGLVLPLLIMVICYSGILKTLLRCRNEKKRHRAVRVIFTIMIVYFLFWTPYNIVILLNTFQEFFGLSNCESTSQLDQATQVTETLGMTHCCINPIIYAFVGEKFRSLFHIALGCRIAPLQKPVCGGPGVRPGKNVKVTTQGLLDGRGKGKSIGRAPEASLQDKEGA

With `O=C1NCN(c2ccccc2)C12CCN(CCCN1c3ccccc3Sc3ccc(Cl)cc31)CC2`, in test [1], the IC50 stood at 7 µM. On to `CC(=O)c1ccc2c(c1)N(CCCN1CCC3(CC1)C(=O)NCN3c1ccccc1)c1ccccc1S2`, for which the IC50 in test [1] was 3 µM. In test [1], `CN(C)S(=O)(=O)c1ccc2c(c1)N(CCCN1CCC(Cc3ccccc3)CC1)c1ccccc1S2` showed an IC50 of 7 µM.

`CN(C)C(=O)c1ccc2c(c1)N(CCCN1CCC3(CC1)C(=O)NCN3c1ccccc1)c1ccccc1S2` had an IC50 in test [1] of 5 µM. The same measure, in the same setting: next, `COC(=O)c1ccc2c(c1)N(CCCN1CCC3(CC1)C(=O)NCN3c1ccccc1)c1ccccc1S2`: 4 µM; `CN(C)S(=O)(=O)c1ccc2c(c1)N(CCCN1CCC(c3ccccc3)CC1)c1ccccc1S2`: 4.5 µM. `CN(C)S(=O)(=O)c1ccc2c(c1)N(CCCN1CCCCC1)c1ccccc1S2` yielded an inhibition in the test with THP-1 of 38%.

The molecule `CN(C)S(=O)(=O)c1ccc2c(c1)N(CCCN1CCC3(CC1)C(=O)NCN3c1ccccc1)c1ccccc1S2` came in with an IC50 in test [1] of 3 µM. The inhibition result in test [2] was “inactive”.

In test [1], `CN(CCCc1ccccc1)CCCN1c2ccccc2Sc2ccc(S(=O)(=O)N(C)C)cc21` gave an IC50 of 4 µM. Regarding `CN(C)S(=O)(=O)c1ccc2c(c1)N(CCCN1CCC(C3CCCCC3)CC1)c1ccccc1S2`, the IC50 in test [1] was found to be 2 µM. Same read-out and setting: with `N#Cc1ccc2c(c1)N(CCCN1CCC3(CC1)C(=O)NCN3c1ccccc1)c1ccccc1S2` the figure was 6 µM; with `O=C1NCN(c2ccccc2)C12CCN(CCCN1c3ccccc3Sc3ccccc31)CC2`, 12 µM; with `CN(C)S(=O)(=O)c1ccc2c(c1)N(CCCCN1CCC3(CC1)C(=O)NCN3c1ccccc1)c1ccccc1S2`, 10 µM. In the test on THP-1, `CN(C)S(=O)(=O)c1ccc2c(c1)N(CCN1CCC3(CC1)C(=O)NCN3c1ccccc1)c1ccccc1S2` registered an inhibition of less than 20%.

What is called IC50 is the concentration that gives 50% inhibition. A low value points to greater potency in that assay. Broadly, the inhibition is the drop in the measured response relative to a control, in per cent.
